Measured values reported in patent US9266908B2, “Inhibitors of arginase and their therapeutic applications” (MARS, INCORPORATED, priority 2011, dated 2016).

Tests used:
human-Arginase-1 = biological target: T1, human-Arginase-1 (Homo sapiens, UniProt P05089); experiment: Urea production in CHOK cells stably transfected with human-Arginase-1; type: cell-based; conditions: IC50 class, 5 mM arginine, 24 hours, read-out: CHOK Cell
T1 construct: expressed in transfected cells; host or cells: CHOK cells
T1 sequence (P05089 1-322): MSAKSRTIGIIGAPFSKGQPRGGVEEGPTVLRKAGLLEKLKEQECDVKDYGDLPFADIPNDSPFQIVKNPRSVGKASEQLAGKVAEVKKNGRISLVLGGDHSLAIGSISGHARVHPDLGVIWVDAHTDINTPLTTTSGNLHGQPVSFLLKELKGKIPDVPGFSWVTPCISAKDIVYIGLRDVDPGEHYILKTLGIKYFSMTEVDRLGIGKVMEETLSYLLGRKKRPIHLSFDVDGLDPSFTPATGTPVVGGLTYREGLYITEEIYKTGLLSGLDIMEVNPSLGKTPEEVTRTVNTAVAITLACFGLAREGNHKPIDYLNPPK
Procedure: Table 3 also provides CHOK cell based IC50 values for illustrative arginase inhibitors. IC50 values were determined by measuring the production of urea in CHOK cells stably transfected with human-Arginase-1.
Briefly, CHOK cells were stably transfected with human-arginase-1. To determiner the IC50 values for compounds in accordance with the present invention, parental CHOK cells and arginase-1 stably transfected cells were plated in a 96 well plate. Cells were plated using 200 μl of complete growth medium and incubated overnight at 37° C.
Media from each of the wells containing cells was first removed and growth media supplemented with arginine at a concentration of 5 mM was added to each well. The test compounds were dissolved in PBS buffer to the desired concentration and added to appropriate wells. The plate was then incubated at 37° C. for 24 hours. After 24 hours the plates were spun down at 3000 RPM for 5 min and 50 μl of the media were transferred to a new plate.
An aqueous solution of o-phthaldehyde, Brij, sulfuric acid, primaquine diphosphate and boric acid was added to each well and the plate was incubated for 10-15 minutes. The urea concentration in each well was determined by measuring the optical density at 520-530 nanometers using a standard curve. The IC50 values were calculated by measuring urea production at various concentrations of the inventive arginase inhibitors after subtracting the value related to the concentration of urea in control wells.

human arginase I (ARG I) = biological target: T2, human arginase I (ARG I) (Homo sapiens, UniProt P05089); experiment: Inhibition of arginase I, spectrophotometric urea assay at 530 nm
T2 sequence (P05089 1-322): T1 sequence (P05089 1-322)
Procedure: Inhibition of arginase I (ARG I) and arginase II (ARG II) by the inventive compounds is followed spectrophotometrically at 530 nm. […] Solutions of arginase I and II are prepared in 100 mM sodium phosphate buffer, pH 7.4 containing 1 mg/ml of OVA to give an arginase stock solution at a final concentration of 100 ng/ml.
To each well of a 96-well microtiter plate is add 40 μl of enzyme, 10 μl of an inventive compound and 10 μl of enzyme substrate (L-arginine+ manganese sulfate). For wells that are used as positive controls, only the enzyme and its substrate are added, while wells used as negative controls contain only manganese sulfate.
After incubating the microtiter plate at 37° C. for 60 minutes, 150 μl of a urea reagent obtained by combining equal proportions (1:1) of reagents A and B is added to each well of the microtiter plate to stop the reaction. The urea reagent is made just before use by combining Reagent A (10 mM o-phthaldialdehyde, and 0.4% polyoxyethylene (23) lauryl ether (w/v) in 1.8 M sulfuric acid) with Reagent B (1.3 mM primaquine diphosphate, 0.4% polyoxyethylene (23) lauryl ether (w/v), 130 mM boric acid in 3.6 M sulfuric acid). After quenching the reaction mixture, the microtiter plate is allowed to stand for an additional 10 minutes at room temperature to allow color development. […] The normalized OD is then used to generate a dose-response curve by plotting the normalized OD values against log [concentration] and using regression analysis to compute the IC50 values.

arginase II (ARG II) = biological target: T3, arginase II (ARG II) (Homo sapiens, UniProt P78540); experiment: Inhibition of arginase II, spectrophotometric urea assay at 530 nm
T3 sequence (P78540 23-354): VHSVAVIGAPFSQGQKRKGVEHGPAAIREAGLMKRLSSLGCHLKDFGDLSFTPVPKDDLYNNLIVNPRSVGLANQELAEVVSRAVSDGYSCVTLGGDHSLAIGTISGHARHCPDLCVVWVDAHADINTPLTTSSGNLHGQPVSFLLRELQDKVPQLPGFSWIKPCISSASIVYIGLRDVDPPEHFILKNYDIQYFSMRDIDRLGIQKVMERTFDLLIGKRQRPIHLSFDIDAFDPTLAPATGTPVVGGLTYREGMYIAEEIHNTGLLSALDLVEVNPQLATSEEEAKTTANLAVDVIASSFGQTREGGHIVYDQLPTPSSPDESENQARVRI

IC50 (human-Arginase-1)	IC50 (human arginase I (ARG I))	IC50 (arginase II (ARG II))	SMILES
1 to 25 µM	0.0001 to 0.025 µM	0.0001 to 0.025 µM	NC(CCCCB(O)O)(C(=O)O)[C@H]1C[C@@H](NCc2ccc(-c3ccc(Cl)cc3)cc2)C1 (stereo partly drawn) [Example 17, (S)-2-amino-6-borono-2-((1s,3R)-3-((4′-chlorobiphenyl-4-yl)methylamino)cyclobutyl)hexanoic acid]
1 to 25 µM	0.0001 to 0.025 µM	0.0001 to 0.025 µM	NC(CCCCB(O)O)(C(=O)O)[C@H]1C[C@@H](NCc2ccc(-c3ccc(C(F)(F)F)cc3)cc2)C1 (stereo partly drawn) [Example 18, (S)-2-amino-6-borono-2-((1s,3R)-3-((4′-(trifluoromethyl)biphenyl-4-yl)methylamino)cyclobutyl)hexanoic acid]
26 to 100 µM	0.0001 to 0.025 µM	0.026 to 0.1 µM	NC(CCCCB(O)O)(C(=O)O)[C@H]1C[C@@H](NCc2ccc(-c3ccc(F)cc3)cc2)C1 (stereo partly drawn) [Example 19, (S)-2-amino-6-borono-2-((1s,3R)-3-((4′-fluorobiphenyl-4-yl)methylamino)cyclobutyl)hexanoic acid]
26 to 100 µM	0.0001 to 0.025 µM	0.0001 to 0.025 µM	NC(CCCCB(O)O)(C(=O)O)[C@H]1C[C@@H](NCc2ccc(Oc3ccc(Cl)cc3)cc2)C1 (stereo partly drawn) [Example 21, (S)-2-amino-6-borono-2-((1s,3R)-3-(4-(4-chlorophenoxy)benzylamino)cyclobutyl)hexanoic acid]
26 to 100 µM	0.026 to 0.1 µM	0.026 to 0.1 µM	NC(CCCCB(O)O)(C(=O)O)[C@H]1C[C@@H](NCc2ccccc2-c2ccc(Cl)cc2)C1 (stereo partly drawn) [Example 22, (S)-2-amino-6-borono-2-((1s,3R)-3-((4′-chlorobiphenyl-2-yl)methylamino)cyclobutyl)hexanoic acid]
1 to 25 µM	0.026 to 0.1 µM	0.0001 to 0.025 µM	NC(CCCCB(O)O)(C(=O)O)[C@H]1C[C@@H](NCc2ccc(-c3ccccc3)nc2)C1 (stereo partly drawn) [Example 23, (S)-2-amino-6-borono-2-((1s,3R)-3-((6-phenylpyridin-3-yl)methylamino)cyclobutyl)hexanoic acid]
26 to 100 µM	0.0001 to 0.025 µM	0.0001 to 0.025 µM	NC(CCCCB(O)O)(C(=O)O)[C@H]1C[C@@H](NCc2ccc3c(c2)Cc2ccccc2-3)C1 (stereo partly drawn) [Example 24, (S)-2-((1s,3R)-3-((9H-fluoren-2-yl)methylamino)cyclobutyl)-2-amino-6-boronohexanoic acid]
26 to 100 µM	0.026 to 0.1 µM	0.026 to 0.1 µM	NC(CCCCB(O)O)(C(=O)O)[C@H]1C[C@@H](NCc2ccccc2-c2ccc(C(F)(F)F)cc2)C1 (stereo partly drawn) [Example 25, (S)-2-amino-6-borono-2-((1s,3R)-3-((4′-(trifluoromethyl)biphenyl-2-yl)methylamino)cyclobutyl)hexanoic acid]
26 to 100 µM	0.0001 to 0.025 µM	0.026 to 0.1 µM	NC(CCCCB(O)O)(C(=O)O)[C@H]1C[C@@H](NCc2ccc(C3CCCCC3)cc2)C1 (stereo partly drawn) [Example 26, (S)-2-amino-6-borono-2-((1s,3R)-3-(4-cyclohexylbenzylamino)cyclobutyl)hexanoic acid]
26 to 100 µM	0.101 to 0.5 µM	0.501 to 1.5 µM	NC(CCCCB(O)O)(C(=O)O)[C@H]1C[C@@H](N(Cc2ccccc2)Cc2ccccc2)C1 (stereo partly drawn) [Example 27, (S)-2-amino-6-borono-2-((1s,3R)-3-(dibenzylamino)cyclobutyl)hexanoic acid]
1 to 25 µM	0.101 to 0.5 µM	0.101 to 0.5 µM	CNC(CCCCB(O)O)(CCN1Cc2ccccc2C1)C(=O)O (stereo not drawn) [Example 30, 6-borono-2-(2-(isoindolin-2-yl)ethyl)-2-(methylamino)hexanoic acid]
26 to 100 µM	0.101 to 0.5 µM	0.101 to 0.5 µM	CNC(CCCCB(O)O)(CCN1CCC(C)CC1)C(=O)O (stereo not drawn) [Example 33, 6-borono-2-(methylamino)-2-(2-(4-methylpiperidin-1-yl)ethyl)hexanoic acid]
26 to 100 µM	0.101 to 0.5 µM	0.101 to 0.5 µM	CNC(CCCCB(O)O)(CCNCc1ccc(Cl)c(Cl)c1)C(=O)O (stereo not drawn) [Example 35, 6-borono-2-(2-(3,4-dichlorobenzylamino)ethyl)-2-(methylamino)hexanoic acid]
1 to 25 µM	0.101 to 0.5 µM	0.101 to 0.5 µM	CNC(CCCCB(O)O)(CCN1CCC(c2ccccc2)CC1)C(=O)O (stereo not drawn) [Example 36, 6-borono-2-(methylamino)-2-(2-(4-phenylpiperidin-1-yl)ethyl)hexanoic acid]
1 to 25 µM	0.026 to 0.1 µM	0.101 to 0.5 µM	NC(CCCCB(O)O)(CCCN1Cc2ccccc2C1)C(=O)O (stereo not drawn) [Example 39, 2-amino-6-borono-2-(3-(isoindolin-2-yl)propyl)hexanoic acid]
1 to 25 µM	0.026 to 0.1 µM	0.101 to 0.5 µM	NC(CCCCB(O)O)(CCCN1CCc2c(Cl)cccc2C1)C(=O)O (stereo not drawn) [Example 40, 2-amino-6-borono-2-(3-(5-chloro-3,4-dihydroisoquinolin-2(1H)-yl)propyl)hexanoic acid]
1 to 25 µM	0.101 to 0.5 µM	0.101 to 0.5 µM	NC(CCCCB(O)O)(CCCN1CCc2ccccc2C1)C(=O)O (stereo not drawn) [Example 41, 2-amino-6-borono-2-(3-(3,4-dihydroisoquinolin-2(1H)-yl)propyl)hexanoic acid]
26 to 100 µM	0.026 to 0.1 µM	0.026 to 0.1 µM	NC(CCCCB(O)O)(C(=O)O)[C@H]1CC[C@@H](NCc2ccc(-c3ccccc3)cc2)C1 (stereo partly drawn) [Example 44]
1 to 25 µM	0.0001 to 0.025 µM	0.0001 to 0.025 µM	NC(CCCCB(O)O)(C(=O)O)[C@H]1C[C@@H](NCc2ccc(-c3ccc(Cl)cc3)cc2F)C1 (stereo partly drawn) [Example 49, (S)-2-amino-6-borono-2-((1s,3R)-3-((4′-chloro-3-fluorobiphenyl-4-yl)methylamino)cyclobutyl)hexanoic acid]
26 to 100 µM	0.0001 to 0.025 µM	0.026 to 0.1 µM	NC(CCCCB(O)O)(C(=O)O)[C@H]1C[C@@H](NCCCc2ccc(C(F)(F)F)cc2)C1 (stereo partly drawn) [Example 56, (S)-2-amino-6-borono-2-((1s,3R)-3-(3-(4-(trifluoromethyl)phenyl)propylamino)cyclobutyl)hexanoic acid]
26 to 100 µM	0.026 to 0.1 µM	0.026 to 0.1 µM	NC(CCCCB(O)O)(C(=O)O)C1CC2CCC(C1)N2Cc1ccc(OC(F)(F)F)cc1 (stereo not drawn) [Example 64, 2-amino-6-borono-2-(8-(4-(trifluoromethoxy)benzyl)-8-azabicyclo[3.2.1]octan-3-yl)hexanoic acid]
1 to 25 µM	0.501 to 1.5 µM	0.101 to 0.5 µM	CCN(CCO)CC[C@](N)(CCCCB(O)O)C(=O)O [Example 67, (R)-2-amino-6-borono-2-(2-(ethyl(2-hydroxyethyl)amino)ethyl)hexanoic acid]

SMILES	IC50 (human-Arginase-1)	IC50 (human arginase I (ARG I))	IC50 (arginase II (ARG II))
NC(CCCCB(O)O)(C(=O)O)C1CC2CCC(C1)N2Cc1ccc(Cl)cc1 [Example 45, 2-amino-6-borono-2-{(1R,5S)-8-(4-chlorobenzyl)-8-aza-bicycli[3.2.1]-octan-3-yl}-hexanoic acid]	1 to 25 µM	0.0001 to 0.025 µM	0.026 to 0.1 µM
NC(CCCCB(O)O)(C(=O)O)C1CC2CCC(C1)N2Cc1ccc(Cl)c(Cl)c1 [Example 46, 2-Amino-6-borono-2-{(1R,5S)-8-(3,4-dichlorobenzyl)-8-aza-bicycli[3.2.1]-octan-3-yl}-hexanoic acid]	1 to 25 µM	0.0001 to 0.025 µM	0.0001 to 0.025 µM
NC(CCCCB(O)O)(C(=O)O)C1CC2CCC(C1)N2 (stereo not drawn) [Example 61, 2-amino-2-(8-azabicyclo[3.2.1]octan-3-yl)-6-boronohexanoic acid]	1 to 25 µM	0.026 to 0.1 µM	0.026 to 0.1 µM
NC(CCCCB(O)O)(C(=O)O)C1CC2CCC(C1)N2Cc1ccccc1 (stereo not drawn) [Example 62, 2-amino-2-(8-benzyl-8-azabicyclo[3.2.1]octan-3-yl)-6-boronohexanoic acid]	1 to 25 µM	0.0001 to 0.025 µM	0.026 to 0.1 µM
NC(CCCCB(O)O)(C(=O)O)C1CC2CCC(C1)N2Cc1ccc(F)c(F)c1 (stereo not drawn) [Example 63, 2-amino-6-borono-2-(8-(3,4-difluorobenzyl)-8-azabicyclo[3.2.1]octan-3-yl)hexanoic acid]	1 to 25 µM	0.0001 to 0.025 µM	0.026 to 0.1 µM
